Test results published in US20140179615A1, “Glutathione and Acetaminophen Composition and Preparation Method Thereof” (Hainan Weikang Pharmaceutical (Qianshan) Co., Ltd., priority 2012, published 2014).

What was measured:
[1] = system: healthy male Kunming mice; test: Impact on liver damage in mice: serum AST and ALT activity after gavage; assay type: in vivo; conditions: gavage 0.5 g/kg, 4 d at intervals of 24 h, mean ± spread, 10 mice per group
Procedure: 1. Materials: healthy male Kunming mice (weight: 20-22 g)
Divide 50 mice into 5 Groups: Control Group, Model Group, Embodiment Group 1, Embodiment Group 2 and Embodiment Group 3; 10 mice for each group. The mice are fed freely two days and fasted 16 h before the experiment. Experimental Treatment: the mice respectively of Control Group, Model Group, Embodiment Group 1, Embodiment Group 2 and Embodiment Group 3 are separately given normal saline, acetaminophen solution (0.5 g/kg), tablets (0.5 g/kg) made in Embodiment 1, oral solution (0.5 g/kg) made in Embodiment 2, and granules made in Embodiment 3 by gavage. The mice are treated continuously 4 d at intervals of 24 h. The mice of control group are given 1% sodium carboxymethylcellulose (0.15 g/kg) by gavage 1 h after last treatment and sacrificed by cervical dislocation after 24 h.
Preparation of Blood Serum: take blood from mouse carotid artery, stand the blood, then make it centrifuged at 3,000 r/min for 15 min to separate out the serum, and put the serum in refrigerator (−20° C.) for storage.
Measuring Indicator and Method: take the prepared serum on Sigma95308 automatic biochemistry analyzer to determine the activity of aspartate transaminase (AST/GOT) and alanine aminotransferase (ALT/GPT).
Impact of Embodiments on Liver Damage

[2] = after taken, cited from earlier work

CC(=O)Nc1ccc(O)cc1 [Model Group, Acetaminophen]
ALT (alanine aminotransferase, ALT/GPT) activity in serum [1]: 87.8 ± 9.5 IU · L^−1 | AST (aspartate transaminase, AST/GOT) activity in serum [1]: 245.6 ± 18.3 IU · L^−1 | Share combined with glucuronide ([2]; liver metabolism): 60% | Share combined with sulfuric acid ([2]; liver metabolism): 30% | Share metabolized by liver cytochrome P450 oxidase system to NAPQI [2]: 4%-5 | Share of acetaminophen metabolized by the liver [2]: 90%
